Laboratory results published in ChEMBL document CHEMBL5034035, “Discovery of an Oxycyclohexyl Acid Lysophosphatidic Acid Receptor 1 (LPA1) Antagonist BMS-986278 for the Treatment of Pulmonary Fibrotic Diseases” (J Med Chem, 2021).

Assays:
[1] = Drug concentration in po dosed monkey plasma assessed as concentration of parent compound; type: ADME, organism-based, Macaca mulatta; conditions: rhesus monkey, in vivo
[2] = Protein binding in human plasma assessed as free fraction at 3 mg/kg, po or 1 mg/kg, iv measured up to 24 hrs by LC-MS/MS analysis; type: ADME, organism-based
[3] = Protein binding in Sprague-Dawley rat plasma assessed as free fraction at 3 mg/kg, po or 1 mg/kg, iv measured up to 24 hrs by LC-MS/MS analysis; type: ADME, organism-based
[4] = Protein binding in CD-1 mouse plasma assessed as free fraction at 3 mg/kg, po or 1 mg/kg, iv measured up to 24 hrs by LC-MS/MS analysis; type: ADME, organism-based
[5] = biological target: Bile salt export pump (Homo sapiens, UniProt O95342); assay: Inhibition of BSEP (unknown origin); type: ADME
[6] = biological target: T1, Solute carrier organic anion transporter family member 1B1 (Homo sapiens, UniProt Q9Y6L6); assay: Inhibition of OATP1B1 (unknown origin); type: ADME
T1 sequence (Q9Y6L6 whole entry): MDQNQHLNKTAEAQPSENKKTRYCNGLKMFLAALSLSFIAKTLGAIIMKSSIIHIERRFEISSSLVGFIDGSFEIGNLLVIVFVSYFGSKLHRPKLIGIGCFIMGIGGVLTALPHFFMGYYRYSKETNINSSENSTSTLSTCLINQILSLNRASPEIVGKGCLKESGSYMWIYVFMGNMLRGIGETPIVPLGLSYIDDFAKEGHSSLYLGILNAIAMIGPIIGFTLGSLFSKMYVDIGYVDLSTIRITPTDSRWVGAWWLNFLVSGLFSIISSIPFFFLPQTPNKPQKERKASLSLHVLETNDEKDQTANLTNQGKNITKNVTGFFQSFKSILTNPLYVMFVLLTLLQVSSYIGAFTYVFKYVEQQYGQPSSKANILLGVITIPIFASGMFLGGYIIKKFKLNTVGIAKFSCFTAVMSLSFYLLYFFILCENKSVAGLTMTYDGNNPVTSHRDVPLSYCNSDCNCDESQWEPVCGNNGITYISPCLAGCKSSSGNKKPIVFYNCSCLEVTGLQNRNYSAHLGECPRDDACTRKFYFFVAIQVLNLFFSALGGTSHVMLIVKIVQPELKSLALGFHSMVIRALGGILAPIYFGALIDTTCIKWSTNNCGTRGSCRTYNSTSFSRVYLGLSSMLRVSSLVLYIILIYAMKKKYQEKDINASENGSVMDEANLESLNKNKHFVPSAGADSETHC

Sequence of Bile salt export pump (O95342 whole entry): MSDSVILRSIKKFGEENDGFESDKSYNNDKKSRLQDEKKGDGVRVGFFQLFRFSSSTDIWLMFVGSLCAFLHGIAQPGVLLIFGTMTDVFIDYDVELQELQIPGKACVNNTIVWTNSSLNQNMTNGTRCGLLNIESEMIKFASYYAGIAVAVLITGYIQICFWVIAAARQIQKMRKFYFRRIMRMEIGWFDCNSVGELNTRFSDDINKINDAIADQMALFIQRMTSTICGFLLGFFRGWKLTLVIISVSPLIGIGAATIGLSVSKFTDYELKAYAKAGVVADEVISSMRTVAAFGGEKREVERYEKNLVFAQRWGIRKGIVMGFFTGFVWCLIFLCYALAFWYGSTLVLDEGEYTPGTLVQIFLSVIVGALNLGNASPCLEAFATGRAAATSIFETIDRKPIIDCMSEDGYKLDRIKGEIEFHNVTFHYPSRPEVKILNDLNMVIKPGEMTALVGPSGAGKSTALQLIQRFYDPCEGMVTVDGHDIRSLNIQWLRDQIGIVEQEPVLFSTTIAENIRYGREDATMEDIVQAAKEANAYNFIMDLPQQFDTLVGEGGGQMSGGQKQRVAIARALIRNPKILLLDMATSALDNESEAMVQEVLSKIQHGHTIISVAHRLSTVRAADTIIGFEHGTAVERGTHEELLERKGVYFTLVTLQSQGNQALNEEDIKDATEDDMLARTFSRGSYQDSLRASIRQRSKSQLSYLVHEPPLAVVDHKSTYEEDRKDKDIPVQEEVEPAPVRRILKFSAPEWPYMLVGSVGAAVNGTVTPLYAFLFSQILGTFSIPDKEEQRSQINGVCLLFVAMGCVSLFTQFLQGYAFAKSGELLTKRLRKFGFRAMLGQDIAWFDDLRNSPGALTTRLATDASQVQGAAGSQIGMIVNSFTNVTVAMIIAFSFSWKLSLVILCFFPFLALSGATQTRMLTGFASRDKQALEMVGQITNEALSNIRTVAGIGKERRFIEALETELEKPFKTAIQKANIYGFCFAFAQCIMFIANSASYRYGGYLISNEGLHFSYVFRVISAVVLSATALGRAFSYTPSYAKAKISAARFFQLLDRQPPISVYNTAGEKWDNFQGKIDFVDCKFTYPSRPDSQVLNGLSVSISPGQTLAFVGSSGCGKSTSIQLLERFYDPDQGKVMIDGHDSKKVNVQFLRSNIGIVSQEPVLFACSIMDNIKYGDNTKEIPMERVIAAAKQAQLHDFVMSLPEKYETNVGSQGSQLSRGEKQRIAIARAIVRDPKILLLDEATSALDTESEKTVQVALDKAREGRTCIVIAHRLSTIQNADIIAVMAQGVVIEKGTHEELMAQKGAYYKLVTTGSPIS

CCCN(C)C(=O)OCc1c(-c2ccc(O[C@H]3CCC[C@H](C(=O)O[C@@H]4O[C@H](C(=O)O)[C@@H](O)[C@H](O)[C@H]4O)C3)c(C)n2)nnn1C
Drug uptake [1]: < 10%

CN(C(=O)OCc1c(-c2ccc(O[C@H]3CCC[C@H](C(=O)O)C3)cn2)nnn1C)C1CCCC1
fraction unbound at 24 h [2]: 0.025
fraction unbound at 24 h [3]: 0.025
fraction unbound at 24 h [4]: 0.083
IC50 [5]: 46.3 µM
IC50 [6]: 9.2 µM

CCCNC(=O)OCc1c(-c2ccc(O[C@H]3CCC[C@H](C(=O)O)C3)c(C)n2)nnn1C
Drug uptake [1]: < 10%

Cc1noc(-c2ccc(O[C@H]3CCC[C@H](C(=O)O)C3)nn2)c1COC(=O)N(C)C1CCCC1 (racemic)
IC50 [5]: > 50 µM
IC50 [6]: 35.4 µM
